How the values were obtained:
[1] = target: T1, human PPARδ (hPPARδ) (Homo sapiens, UniProt Q03181); experiment: Test for transcriptional activity of PPARδ (GAL4 chimeric transcription factor luciferase reporter assay in CHO cells); assay type: cell-based; settings: concentration showing 1/2 of maximum luciferase activity
T1 construct: (δ: aa 139-C-end; α: aa 167-C-end); expressed in transfected cells
T1 sequence (Q03181 139-441 limits assumed): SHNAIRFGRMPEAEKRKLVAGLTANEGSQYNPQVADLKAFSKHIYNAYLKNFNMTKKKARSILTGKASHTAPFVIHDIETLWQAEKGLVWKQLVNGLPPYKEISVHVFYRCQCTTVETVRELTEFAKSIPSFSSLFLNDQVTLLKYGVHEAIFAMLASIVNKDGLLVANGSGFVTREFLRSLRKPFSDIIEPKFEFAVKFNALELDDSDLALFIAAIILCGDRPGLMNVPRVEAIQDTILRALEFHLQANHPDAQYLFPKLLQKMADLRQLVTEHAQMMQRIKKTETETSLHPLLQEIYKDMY
Source text: Test Example 1 Test for Transcriptional Activity of PPARδ and α
A chimeric transcription factor assay, which is commonly used to detect nuclear receptor activity, was employed to measure PPAR transcriptional activity. Specifically, two plasmids, one that expresses the fusion protein of DNA binding domain of yeast transcription factor GAL4 and a ligand binding domain of a receptor, and a reporter plasmid were transiently transfected to CHO cells. The activity of the promoter containing a recognition sequence of GAL4 coded on the reporter plasmid was used as a parameter to estimate the activity of the receptor. • Plasmid: The ligand binding domain of human PPARδ (hPPARδ) or α (hPPARα) (δ: aa 139-C-end; α: aa 167-C-end) is obtained by PCR amplification using Human Universal Quick-Clone cDNA (CLONTECH). Each amplified cDNA was subcloned into pCR2.1-TOPO vector (Invitrogen) and the identity of the cDNA clones was confirmed by the DNA sequence. Then, each obtained cDNA fragment was subcloned into pBIND vector (Promega) to construct a plasmid expressing the fusion protein with DNA binding domain of yeast transcription factor GAL4. pG51uc vector (Promega) was used as a reporter plasmid. • Cell culturing and transfection: CHO cells were cultured in 10% FBS-αMEM. With a 96-well plate (Costar), CHO cells, that were dispersed with trypsin treatment, 20000 cells per well and the two plasmids obtained by the above procedure, 25 ng per well, were transfected with FuGene Reagent (Roche) by following the instruction of the manufacture. • Measurement of the transcriptional activity: CHO cells 100 μl per well, which were transfected as above, were dispensed into the wells in which a test compound dissolved in DMSO 0.5 μl was spotted in advance. After the cells and a test compound were cultured together for 24 hours in a CO2 incubator, the luciferase activity was measured by adding luciferase substrates, PicaGene LT2.0 (Toyo ink) 100 μl per well. LUMINOUS CT-9000D (DIA-IATRON) is used to measure the activity.

EC50 [1]	melting point	SMILES
9.8 nM		O=C(O)Cc1cccc(SCc2noc(-c3ccc(C(F)(F)F)cc3)c2C=NOCCF)c1 [X-6, {3-[4-(2-Fluoroethoxyiminomethyl)-5-(4-trifluoromethylphenyl)isoxazole-3-ylmethylsulfanyl]phenyl}acetic acid]
9.8 nM		CCON=Cc1c(CSc2cc(CC(=O)O)ccc2F)noc1-c1ccc(C(F)(F)F)cc1 [X-8]
12 nM	131 to 133 °C	CCON=Cc1c(CSc2cccc(CC(=O)O)c2)noc1-c1ccc(C(F)(F)F)cc1 [X-25]

Reference: patent US7781469B2, “Arylacetate derivatives having isoxazole skeleton” (Shionogi & Co., Ltd., priority 2005, dated 2010)
